Experimental data reported in paper PMC9186362, “Design and biological evaluation of substituted 5,7-dihydro-6H-indolo[2,3-c]quinolin-6-one as novel selective Haspin inhibitors” (Journal of Enzyme Inhibition and Medicinal Chemistry, 2022).

Experiments:
Experiment in all cases: SelectScreen ZLYTE
Type in all cases: biochemical
[1] = molecular target: T1, ABL1 T315I (Homo sapiens, UniProt P00519, T315I); details: ATP Km, read-out: Percentage of inhibition
T1 construct: purchased Life Technologies (SelectScreen service)
Summary of the method: (§1)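 Broad panel profiling: one dose (1 μM), results reported as % activity lost relative to uninhibited kinase.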

[2] = molecular target: T2, AMPK A1/B1/G1 (Homo sapiens, UniProt Q13131); details: ATP Km, read-out: Percentage of inhibition
T2 construct: purchased Life Technologies (SelectScreen Whole Panel service)
Summary of the method: as §1

[3] = molecular target: AURKA (Aurora A) (Homo sapiens, UniProt O14965); details: ATP Km, read-out: Percentage of inhibition
Summary of the method: as §1

[4] = molecular target: T3, CAMK1D (CaMKI delta) (Homo sapiens, UniProt Q8IU85); details: ATP Km, read-out: Percentage of inhibition
T3 construct: purchased Life Technologies (SelectScreen)
Summary of the method: as §1

[5] = molecular target: CAMK1G (CAMKI gamma) (Homo sapiens, UniProt Q96NX5); details: ATP Km, read-out: Percentage of inhibition
Summary of the method: as §1

[6] = molecular target: CDK17/cyclin Y (Homo sapiens, UniProt Q00537); details: ATP Km, read-out: Percentage of inhibition
Summary of the method: as §1

[7] = molecular target: CSNK1A1L (Homo sapiens, UniProt Q8N752); details: ATP Km, read-out: Percentage of inhibition
Summary of the method: as §1

[8] = molecular target: T4, CSNK1G2 (CK1 gamma 2) (Homo sapiens, UniProt P78368); details: ATP Km, read-out: Percentage of inhibition
T4 construct: purchased Life Technologies
T4 sequence (P78368 whole entry): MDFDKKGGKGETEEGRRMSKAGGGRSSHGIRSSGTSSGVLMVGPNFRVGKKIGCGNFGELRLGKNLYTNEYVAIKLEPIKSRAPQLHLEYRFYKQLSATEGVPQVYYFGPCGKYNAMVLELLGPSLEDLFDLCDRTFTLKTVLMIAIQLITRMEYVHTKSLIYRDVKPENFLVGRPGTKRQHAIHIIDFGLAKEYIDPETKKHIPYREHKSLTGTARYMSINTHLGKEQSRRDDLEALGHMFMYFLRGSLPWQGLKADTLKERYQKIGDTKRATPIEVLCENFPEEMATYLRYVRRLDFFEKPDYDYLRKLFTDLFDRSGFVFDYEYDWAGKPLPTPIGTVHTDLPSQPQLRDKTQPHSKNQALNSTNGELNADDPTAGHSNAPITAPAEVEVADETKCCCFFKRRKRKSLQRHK
Summary of the method: as §1

[9] = molecular target: T5, EGFR (ErbB1) (Homo sapiens, UniProt P00533); details: ATP Km, read-out: Percentage of inhibition
T5 construct: purchased Life Technologies
Summary of the method: as §1

[10] = molecular target: T6, EGFR (ErbB1) G719C (Homo sapiens, UniProt P00533, G719C); details: ATP Km, read-out: Percentage of inhibition
T6 construct: purchased Life Technologies (SelectScreen)
T6 sequence (P00533 25-1210 G719C): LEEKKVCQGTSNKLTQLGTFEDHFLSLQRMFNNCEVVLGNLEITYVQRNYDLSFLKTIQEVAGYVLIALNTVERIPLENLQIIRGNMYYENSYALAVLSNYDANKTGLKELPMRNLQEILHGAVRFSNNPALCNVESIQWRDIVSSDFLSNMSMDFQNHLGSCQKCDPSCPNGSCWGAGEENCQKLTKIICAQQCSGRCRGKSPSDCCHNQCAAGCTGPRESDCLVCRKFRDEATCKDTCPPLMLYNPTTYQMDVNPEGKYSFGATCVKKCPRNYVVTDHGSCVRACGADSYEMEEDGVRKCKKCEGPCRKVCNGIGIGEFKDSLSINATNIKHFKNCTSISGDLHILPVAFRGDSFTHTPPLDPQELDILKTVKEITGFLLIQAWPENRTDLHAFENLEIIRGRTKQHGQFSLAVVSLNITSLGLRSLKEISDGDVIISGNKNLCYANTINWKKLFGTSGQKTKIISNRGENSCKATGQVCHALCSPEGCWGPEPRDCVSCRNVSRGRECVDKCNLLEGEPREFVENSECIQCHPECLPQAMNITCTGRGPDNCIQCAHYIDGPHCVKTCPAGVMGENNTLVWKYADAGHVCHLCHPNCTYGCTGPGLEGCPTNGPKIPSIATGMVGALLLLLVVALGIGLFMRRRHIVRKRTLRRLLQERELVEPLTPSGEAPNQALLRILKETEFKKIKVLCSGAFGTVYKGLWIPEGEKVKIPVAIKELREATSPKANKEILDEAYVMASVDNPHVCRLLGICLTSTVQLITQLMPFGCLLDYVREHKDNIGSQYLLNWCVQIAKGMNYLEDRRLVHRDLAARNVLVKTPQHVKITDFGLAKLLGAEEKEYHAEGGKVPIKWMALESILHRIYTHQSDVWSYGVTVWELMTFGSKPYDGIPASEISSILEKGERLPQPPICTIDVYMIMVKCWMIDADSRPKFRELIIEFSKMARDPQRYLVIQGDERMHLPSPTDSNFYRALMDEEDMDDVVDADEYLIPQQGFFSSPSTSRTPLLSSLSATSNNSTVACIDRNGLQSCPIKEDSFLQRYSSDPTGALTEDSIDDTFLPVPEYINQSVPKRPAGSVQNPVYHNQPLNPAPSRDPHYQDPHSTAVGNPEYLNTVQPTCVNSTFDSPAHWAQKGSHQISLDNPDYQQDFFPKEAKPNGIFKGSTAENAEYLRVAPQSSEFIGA
Summary of the method: as §1

[11] = molecular target: T7, EGFR (ErbB1) G719S (Homo sapiens, UniProt P00533, G719S); details: ATP Km, read-out: Percentage of inhibition
T7 construct: purchased Life Technologies (SelectScreen Whole Panel service)
Summary of the method: as §1

[12] = molecular target: EGFR (ErbB1) T790M L858R (Homo sapiens, UniProt P00533, L858R/T790M); details: ATP Km, read-out: Percentage of inhibition
Summary of the method: as §1

[13] = molecular target: T8, EPHA1 (Homo sapiens, UniProt P21709); details: ATP Km, read-out: Percentage of inhibition
T8 construct: purchased Life Technologies
Summary of the method: as §1

[14] = molecular target: T9, EPHA8 (Homo sapiens, UniProt P29322); details: ATP Km, read-out: Percentage of inhibition
T9 construct: purchased Life Technologies (SelectScreen Whole Panel service)
Summary of the method: as §1

[15] = molecular target: EPHB2 (Homo sapiens, UniProt P29323); details: ATP Km, read-out: Percentage of inhibition
Summary of the method: as §1

[16] = molecular target: FGFR4 (Homo sapiens, UniProt P22455); details: ATP Km, read-out: Percentage of inhibition
Summary of the method: as §1

[17] = molecular target: T10, FLT1 (VEGFR1) (Homo sapiens, UniProt P17948); details: ATP Km, read-out: Percentage of inhibition
T10 construct: purchased Life Technologies (SelectScreen Whole Panel service)
Summary of the method: as §1

[18] = molecular target: FRAP1 (mTOR) (Homo sapiens, UniProt P42345); details: ATP Km, read-out: Percentage of inhibition
Summary of the method: as §1

[19] = molecular target: T11, FRK (PTK5) (Homo sapiens, UniProt P42685); details: ATP Km, read-out: Percentage of inhibition
T11 construct: purchased Life Technologies
Summary of the method: as §1

[20] = molecular target: T12, FYN (Homo sapiens, UniProt P06241); details: ATP Km, read-out: Percentage of inhibition
T12 construct: purchased Life Technologies (SelectScreen Whole Panel)
Summary of the method: as §1

[21] = molecular target: T13, GRK5 (Homo sapiens, UniProt P34947); details: ATP Km, read-out: Percentage of inhibition
T13 construct: purchased Life Technologies (SelectScreen Whole Panel service)
Summary of the method: as §1

[22] = molecular target: T14, GSK3B (GSK3 beta) (Homo sapiens, UniProt P49841); details: ATP Km, read-out: Percentage of inhibition
T14 construct: purchased Life Technologies (SelectScreen service)
Summary of the method: as §1

[23] = molecular target: T15, HIPK4 (Homo sapiens, UniProt Q8NE63); details: ATP Km, read-out: Percentage of inhibition
T15 construct: purchased Life Technologies (SelectScreen service)
T15 sequence (Q8NE63 whole entry): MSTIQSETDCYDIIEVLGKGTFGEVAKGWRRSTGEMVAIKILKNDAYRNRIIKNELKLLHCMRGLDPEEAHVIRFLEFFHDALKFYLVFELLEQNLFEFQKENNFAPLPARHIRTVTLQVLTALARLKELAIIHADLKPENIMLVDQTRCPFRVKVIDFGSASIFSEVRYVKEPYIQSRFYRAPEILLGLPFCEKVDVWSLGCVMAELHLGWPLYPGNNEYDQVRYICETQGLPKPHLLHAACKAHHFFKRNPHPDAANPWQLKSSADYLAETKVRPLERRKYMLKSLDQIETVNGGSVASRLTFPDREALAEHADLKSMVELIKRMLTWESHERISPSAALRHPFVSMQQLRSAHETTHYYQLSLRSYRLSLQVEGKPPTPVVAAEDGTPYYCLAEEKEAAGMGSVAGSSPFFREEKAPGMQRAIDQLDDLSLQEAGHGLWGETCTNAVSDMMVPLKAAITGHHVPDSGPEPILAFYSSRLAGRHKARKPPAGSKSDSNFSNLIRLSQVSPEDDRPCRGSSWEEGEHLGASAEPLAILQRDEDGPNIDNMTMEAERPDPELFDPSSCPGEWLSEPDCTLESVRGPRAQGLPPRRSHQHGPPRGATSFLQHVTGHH
Summary of the method: as §1

[24] = molecular target: T16, IKBKB (IKK beta) (Homo sapiens, UniProt O14920); details: ATP Km, read-out: Percentage of inhibition
T16 construct: purchased Life Technologies (SelectScreen Whole Panel)
T16 sequence (O14920 whole entry): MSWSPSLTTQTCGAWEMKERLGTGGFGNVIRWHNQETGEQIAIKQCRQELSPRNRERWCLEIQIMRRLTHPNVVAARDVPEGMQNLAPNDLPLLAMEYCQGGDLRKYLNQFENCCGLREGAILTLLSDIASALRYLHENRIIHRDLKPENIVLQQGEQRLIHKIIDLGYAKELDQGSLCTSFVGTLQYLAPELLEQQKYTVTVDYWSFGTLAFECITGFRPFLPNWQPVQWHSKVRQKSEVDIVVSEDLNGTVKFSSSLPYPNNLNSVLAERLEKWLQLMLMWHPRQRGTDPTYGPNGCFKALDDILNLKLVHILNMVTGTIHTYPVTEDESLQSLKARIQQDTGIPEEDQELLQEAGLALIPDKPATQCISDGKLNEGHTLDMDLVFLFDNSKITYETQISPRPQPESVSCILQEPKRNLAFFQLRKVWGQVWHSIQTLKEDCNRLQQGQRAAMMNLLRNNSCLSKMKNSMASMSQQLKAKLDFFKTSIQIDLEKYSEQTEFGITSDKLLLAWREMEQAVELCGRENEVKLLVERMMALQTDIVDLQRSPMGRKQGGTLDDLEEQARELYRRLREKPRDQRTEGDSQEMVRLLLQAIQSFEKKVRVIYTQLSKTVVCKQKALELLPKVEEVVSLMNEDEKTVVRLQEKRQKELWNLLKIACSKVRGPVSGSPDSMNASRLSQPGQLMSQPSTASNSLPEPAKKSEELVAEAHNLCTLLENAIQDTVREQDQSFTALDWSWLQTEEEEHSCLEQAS
Summary of the method: as §1

[25] = molecular target: T17, JAK2 (Homo sapiens, UniProt O60674); details: ATP Km, read-out: Percentage of inhibition
T17 construct: purchased Life Technologies (SelectScreen Whole Panel)
T17 sequence (O60674 whole entry): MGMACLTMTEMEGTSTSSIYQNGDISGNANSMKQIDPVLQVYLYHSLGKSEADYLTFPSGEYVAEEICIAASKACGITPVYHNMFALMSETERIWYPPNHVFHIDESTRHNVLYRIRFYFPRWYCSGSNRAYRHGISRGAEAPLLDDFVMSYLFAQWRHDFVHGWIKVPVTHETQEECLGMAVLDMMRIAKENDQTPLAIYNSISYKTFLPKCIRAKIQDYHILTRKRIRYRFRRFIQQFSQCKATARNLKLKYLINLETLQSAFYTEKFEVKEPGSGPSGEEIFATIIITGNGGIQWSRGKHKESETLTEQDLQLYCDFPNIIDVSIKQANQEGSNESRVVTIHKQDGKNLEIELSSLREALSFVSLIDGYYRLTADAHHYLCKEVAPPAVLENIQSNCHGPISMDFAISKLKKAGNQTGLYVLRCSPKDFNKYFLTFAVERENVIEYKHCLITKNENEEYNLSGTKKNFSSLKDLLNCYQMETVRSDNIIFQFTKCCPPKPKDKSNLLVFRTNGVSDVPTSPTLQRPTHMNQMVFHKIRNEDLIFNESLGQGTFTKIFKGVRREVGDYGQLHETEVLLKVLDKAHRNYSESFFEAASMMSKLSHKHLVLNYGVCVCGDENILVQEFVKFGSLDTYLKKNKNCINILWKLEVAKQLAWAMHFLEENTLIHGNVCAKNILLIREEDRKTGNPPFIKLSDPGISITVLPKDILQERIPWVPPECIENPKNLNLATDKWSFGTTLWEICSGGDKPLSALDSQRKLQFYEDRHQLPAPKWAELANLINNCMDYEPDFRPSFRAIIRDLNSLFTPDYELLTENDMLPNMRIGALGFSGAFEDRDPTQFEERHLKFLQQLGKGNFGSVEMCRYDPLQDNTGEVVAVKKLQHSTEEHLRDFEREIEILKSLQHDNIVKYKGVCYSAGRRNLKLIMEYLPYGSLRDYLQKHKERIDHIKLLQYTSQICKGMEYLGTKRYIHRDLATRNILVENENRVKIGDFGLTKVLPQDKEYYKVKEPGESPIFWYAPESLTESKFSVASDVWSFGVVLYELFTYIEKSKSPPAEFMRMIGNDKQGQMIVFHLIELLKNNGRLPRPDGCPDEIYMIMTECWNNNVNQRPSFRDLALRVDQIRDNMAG
Summary of the method: as §1

[26] = molecular target: T18, MAPK10 (JNK3) (Homo sapiens, UniProt P53779); details: ATP 100 µM, read-out: Percentage of inhibition
T18 construct: purchased Life Technologies
Summary of the method: as §1

[27] = molecular target: MYLK2 (skMLCK) (Homo sapiens, UniProt Q9H1R3); details: ATP Km, read-out: Percentage of inhibition
Summary of the method: as §1

[28] = molecular target: T19, PDGFRA V561D (Homo sapiens, UniProt P16234, V561D); details: ATP Km, read-out: Percentage of inhibition
T19 construct: purchased Life Technologies (SelectScreen service)
Summary of the method: as §1

[29] = molecular target: T20, PLK3 (Homo sapiens, UniProt Q9H4B4); details: ATP Km, read-out: Percentage of inhibition
T20 construct: purchased Life Technologies (SelectScreen service)
T20 sequence (Q9H4B4 whole entry): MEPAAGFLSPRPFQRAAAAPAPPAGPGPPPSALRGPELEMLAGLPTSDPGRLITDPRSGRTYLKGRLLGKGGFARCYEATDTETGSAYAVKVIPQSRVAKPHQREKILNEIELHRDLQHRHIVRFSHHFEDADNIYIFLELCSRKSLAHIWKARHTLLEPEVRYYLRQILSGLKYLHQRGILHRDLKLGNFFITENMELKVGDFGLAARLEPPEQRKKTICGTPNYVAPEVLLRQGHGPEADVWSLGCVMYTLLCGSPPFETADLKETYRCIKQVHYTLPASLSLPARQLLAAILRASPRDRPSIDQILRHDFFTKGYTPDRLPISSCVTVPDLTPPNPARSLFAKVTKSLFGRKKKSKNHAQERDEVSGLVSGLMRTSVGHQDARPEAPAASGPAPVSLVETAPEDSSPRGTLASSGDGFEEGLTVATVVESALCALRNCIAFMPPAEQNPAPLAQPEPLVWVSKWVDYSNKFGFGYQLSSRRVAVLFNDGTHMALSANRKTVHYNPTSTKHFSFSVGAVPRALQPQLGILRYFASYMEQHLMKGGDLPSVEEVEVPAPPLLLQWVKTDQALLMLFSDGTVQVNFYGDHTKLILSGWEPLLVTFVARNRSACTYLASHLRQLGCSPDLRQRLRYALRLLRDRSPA
Summary of the method: as §1

[30] = molecular target: PRKCA (PKC alpha) (Homo sapiens, UniProt P17252); details: ATP Km, read-out: Percentage of inhibition
Summary of the method: as §1

[31] = molecular target: T21, PRKCB1 (PKC beta I) (Homo sapiens, UniProt P05771); details: ATP Km, read-out: Percentage of inhibition
T21 construct: purchased Life Technologies (SelectScreen)
Summary of the method: as §1

[32] = molecular target: T22, PRKD2 (PKD2) (Homo sapiens, UniProt Q9BZL6); details: ATP Km, read-out: Percentage of inhibition
T22 construct: purchased Life Technologies
Summary of the method: as §1

[33] = molecular target: T23, RET A883F (Homo sapiens, UniProt P07949, A883F); details: ATP Km, read-out: Percentage of inhibition
T23 construct: purchased Life Technologies (SelectScreen service)
Summary of the method: as §1

[34] = molecular target: T24, ROCK2 (Homo sapiens, UniProt O75116); details: ATP Km, read-out: Percentage of inhibition
T24 construct: purchased Life Technologies
Summary of the method: as §1

[35] = molecular target: T25, RPS6KA5 (MSK1) (Homo sapiens, UniProt O75582); details: ATP Km, read-out: Percentage of inhibition
T25 construct: purchased Life Technologies
Summary of the method: as §1

[36] = molecular target: T26, SRC (Homo sapiens, UniProt P12931); details: ATP Km, read-out: Percentage of inhibition
T26 construct: purchased Life Technologies
Summary of the method: as §1

[37] = molecular target: T27, STK25 (YSK1) (Homo sapiens, UniProt O00506); details: ATP Km, read-out: Percentage of inhibition
T27 construct: purchased Life Technologies (SelectScreen Whole Panel service)
Summary of the method: as §1

[38] = molecular target: YES1 (Homo sapiens, UniProt P07947); details: ATP Km, read-out: Percentage of inhibition
Summary of the method: as §1

For `COc1ccc2[nH]c3c(=O)[nH]c4ccc(O)cc4c3c2c1` [Compound 55, 2-Hydroxy-10-methoxy-5,7-dihydro-6H-indolo[2,3-c]quinolin-6-one], the inhibition at 1 µM [1] was 24%, the inhibition at 1 µM [2] was 47% and the inhibition at 1 µM [3] was 58%. The inhibition at 1 µM [4] was 8%, the inhibition at 1 µM [5] was 14% and the inhibition at 1 µM [6] was 20%. The inhibition at 1 µM [7] was 62%, the inhibition at 1 µM [8] was 33% and the inhibition at 1 µM [9] was 4%. It also gave an inhibition at 1 µM [10] of 8%, an inhibition at 1 µM [11] of 11% and an inhibition at 1 µM [12] of 20%. For the same compound, the inhibition at 1 µM [13] was 33%, the inhibition at 1 µM [14] was 10% and the inhibition at 1 µM [15] was 21%. For the same compound, the inhibition at 1 µM [16] was 22%, the inhibition at 1 µM [17] was 10% and the inhibition at 1 µM [18] was 6%. The inhibition at 1 µM [19] was 33%, the inhibition at 1 µM [20] was 49% and the inhibition at 1 µM [21] was 18%. It also gave an inhibition at 1 µM [22] of 81%, an inhibition at 1 µM [23] of 24% and an inhibition at 1 µM [24] of 55%. It also gave an inhibition at 1 µM [25] of 54%, an inhibition at 1 µM [26] of 15% and an inhibition at 1 µM [27] of 61%. It also gave an inhibition at 1 µM [28] of 79%, an inhibition at 1 µM [29] of 25% and an inhibition at 1 µM [30] of 14%. For the same compound, the inhibition at 1 µM [31] was 8%, the inhibition at 1 µM [32] was 39% and the inhibition at 1 µM [33] was 85%. For the same compound, the inhibition at 1 µM [34] was 4%, the inhibition at 1 µM [35] was 28% and the inhibition at 1 µM [36] was 37%. The inhibition at 1 µM [37] was 19% and the inhibition at 1 µM [38] was 61%.
